{
  "source": "patent US12677834B2",
  "about": "“Silver silicalite zeolite nanomaterials for reducing Candida auris biofilms” (Imam Abdulrahman Bin Faisal University, priority 2023, dated 2026)",
  "key": {"planktonic C. auris": {"test_system": "planktonic C. auris", "assay": "Effect on planktonic C. auris by light microscopy", "assay_type": "cell-based, Candida auris", "conditions": "clade 3 (strain CA9), compared to clade 1 and clade 2; AgNO3 0.0250 to 0.0025 mg/mL", "protocol": "The antifungal activity of the nanomaterial on planktonic C. auris strains was determined by using light microscopy examination. Briefly, the inoculum was adjusted to a final concentration of 10^6 cells mL^−1. […] Plates were incubated at 37° C. for 48 h. […] The mean value of the duplicates was recorded, and micrographs were taken. One-way ANOVA analysis was carried out to identify the significance."}, "Candida auris biofilm": {"test_system": "Candida auris biofilm", "assay": "Biofilm CFU killing assay (96-well microtiter plate, 24 and 48 h)", "assay_type": "cell-based", "conditions": "clade 3 (strain CA9), compared to clade 1 and clade 2; AgNO3 0.0250 to 0.0025 mg/mL", "protocol": "C. auris strains, the clinical isolates, were used to study the effects of the nanomaterial on biofilm formation for 24 and 48 h. All analyses were performed with replicates, and mean values were considered. Initially, culture cells from preserved stock at -80° C. were revived by streaking onto Sabauraud dextrose agar (SDA) plates and incubating overnight at 37° C. From the revived plates, a loopful of the strains was inoculated into SDB and further incubated using an orbital shaker at 130 rpm and 37° C. for 24 and 48 h. The biofilm assay was carried out using the 96-well microtiter plate. The cells harvested from overnight SDB cultures were adjusted to a cell density of 10^7 CFU/mL and diluted. […] Post incubation, plates were manually counted and recorded for the number of cells. Later, the quantity of biofilm formation was determined using a colony-forming unit technique (CFU) and determined as per the following formula: A/B×100 (A is the total number of colonies after treatment and B is the number of cells in control). […] Later, the quantity of biofilm formation was determined using the CFU technique. […] Post incubation, plates were manually counted and recorded for the number of cells. Then, the quantity of biofilm formation was determined using the CFU technique and determined as per the following formula: CFU/mL=(Number of colonies×dilution factor)/volume of plated culture. […]"}},
  "data": [
    {"smiles": "O=[N+]([O-])[O-].[Ag+]", "note": "[AgNO3, silver nitrate]", "values": [
      {"measurement": "inhibitory effect on the planktonic cells", "setting": "planktonic C. auris", "result": "complete inhibitory effect"},
      {"measurement": "inhibitory effect on the biofilm", "setting": "Candida auris biofilm", "result": "complete inhibitory effect"}
    ]}
  ]
}
